Inhibition and USP7 % inhibition data for 23 molecules are collected here from US20240150362A1, “Substituted Pyrrolotriazines” (Molecure S.A., priority 2022, published 2024).

Where a name gives a salt, the structure may show the parent alone. Bounds are passed on as bounds.

For orientation: inhibition means the percentage by which the read-out fell short of the control. A lower inhibition goes with a weak effect.

T1 sequence (Q93009 whole entry): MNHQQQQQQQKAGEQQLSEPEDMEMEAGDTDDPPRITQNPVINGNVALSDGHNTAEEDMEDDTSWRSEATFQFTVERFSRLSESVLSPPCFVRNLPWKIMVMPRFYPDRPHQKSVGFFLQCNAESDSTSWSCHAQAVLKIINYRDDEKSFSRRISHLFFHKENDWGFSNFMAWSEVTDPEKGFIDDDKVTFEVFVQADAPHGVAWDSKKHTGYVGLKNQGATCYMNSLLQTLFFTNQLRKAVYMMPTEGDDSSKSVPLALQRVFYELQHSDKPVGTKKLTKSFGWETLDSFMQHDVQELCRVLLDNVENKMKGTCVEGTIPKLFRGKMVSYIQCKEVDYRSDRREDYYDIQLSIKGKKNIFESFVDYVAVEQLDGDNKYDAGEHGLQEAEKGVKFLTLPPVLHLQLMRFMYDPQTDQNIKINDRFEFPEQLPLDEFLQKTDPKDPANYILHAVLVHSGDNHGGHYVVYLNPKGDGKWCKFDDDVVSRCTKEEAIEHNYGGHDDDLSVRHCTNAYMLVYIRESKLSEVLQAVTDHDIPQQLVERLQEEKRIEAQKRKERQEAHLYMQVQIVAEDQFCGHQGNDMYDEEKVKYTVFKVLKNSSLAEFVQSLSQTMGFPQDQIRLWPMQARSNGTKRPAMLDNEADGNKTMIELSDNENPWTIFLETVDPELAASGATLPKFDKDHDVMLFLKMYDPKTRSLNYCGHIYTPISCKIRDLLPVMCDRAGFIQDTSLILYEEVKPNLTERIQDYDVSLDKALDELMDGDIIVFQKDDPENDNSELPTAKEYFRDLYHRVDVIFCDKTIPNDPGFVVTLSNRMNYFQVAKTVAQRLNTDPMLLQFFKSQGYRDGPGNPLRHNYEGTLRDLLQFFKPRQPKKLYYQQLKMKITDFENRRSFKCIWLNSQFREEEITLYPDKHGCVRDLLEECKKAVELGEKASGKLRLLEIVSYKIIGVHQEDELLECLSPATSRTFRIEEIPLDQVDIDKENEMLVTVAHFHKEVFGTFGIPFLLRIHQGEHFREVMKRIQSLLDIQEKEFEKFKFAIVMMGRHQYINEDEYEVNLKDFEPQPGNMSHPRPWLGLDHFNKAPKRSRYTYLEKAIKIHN

The first experiment has as its target T1, full-length USP7 (Homo sapiens, UniProt Q93009).
T1 construct: A 45 μl reaction volume containing full-length USP7 (0.5-1.0 nM)
Nature of the experiment: Enzymatic assay to determine % inhibition of USP7 activity at 1 μM test compound (Ubiquitin-Rhodamine 110 cleavage). Format: biochemical. Conditions: 1 μM of the test compound; given where IC50 has not been determined yet; mean of two repetitions. As for the experimental part:
Enzymatic Assay to Determine % Value of Inhibition […] Activity at 1 μM […]
A 45 μl reaction volume containing full-length USP7 (0.5-1.0 nM) in 50 mM HEPES pH 7.5, 150 mM NaCl, 2 mM DTT, 1 mg/ml BSA and 0.05% Tween20 (DUB assay buffer) was assembled in wells of 96 well half area black flat bottom plates. All test compounds were first dissolved to 30 mM stocks in DMSO and subsequently introduced to enzyme 15 min after USP7 incubation with DTT at room temperature. The final concentration of tested compounds was 1 μM. The enzymatic reaction was started by adding 0.5 μM Ubiquitin-Rhodamine 110 (final concentration) and allowed to proceed for 30-60 min at 25° C., 250 RPM shaking before Rhodamine fluorescence (485 nm excitation/535 nm emission) was measured using Tecan Spark M10 plate reader. Percentage of inhibition at 1 μM was determined by the mean of two repetitions for these concentrations using Microsoft Excel software.
`CN1CCOC(Cc2c(F)cc(Cl)cc2-c2ncnn3cc(Cn4c(=O)ccn(C)c4=O)cc23)C1` (racemic) [Example 103, 3-((4-(5-chloro-3-fluoro-2-((4-methylmorpholin-2-yl)methyl)phenyl)pyrrolo[2,1-f][1,2,4]triazin-6-yl)methyl)-1-methylpyrimidine-2,4(1H,3H)-dione hydrochloride]: the inhibition at 1 µM lay within 20 to 49%.

For the molecule `Cc1cc(Cl)cc(-c2ncnn3cc(CN4C(=O)C5C(C4=O)C5(C)C)cc23)c1O[C@@H]1CN[C@H](C(=O)O)C1` (stereo partly drawn) [Example 7, (2S,4S)-4-(4-chloro-2-(6-((6,6-dimethyl-2,4-dioxo-3-azabicyclo[3.1.0]hexan-3-yl)methyl)pyrrolo[2,1-f][1,2,4]triazin-4-yl)-6-methylphenoxy)pyrrolidine-2-carboxylic acid hydrochloride], the inhibition at 1 µM was less than 20%.

In turn, `CC1(C)C2C(=O)N(Cc3cc4c(-c5cc(Cl)cc6c5N(C5CNC5)CCC6)ncnn4c3)C(=O)C21` (centres unmarked) [Example 69, 3-((4-(1-(azetidin-3-yl)-6-chloro-1,2,3,4-tetrahydroquinolin-8-yl)pyrrolo[2,1-f][1,2,4]triazin-6-yl)methyl)-6,6-dimethyl-3-azabicyclo[3.1.0]hexane-2,4-dione hydrochloride] came in with an inhibition at 1 µM of more than 70%.

In the case of `CC1(C)C2C(=O)N(Cc3cc4c(-c5cc(Cl)cc6ccn(CC7CNCC(F)(F)C7)c56)ncnn4c3)C(=O)C21` (centres unmarked) [Example 26, 3-((4-(5-chloro-1-((5,5-difluoropiperidin-3-yl)methyl)-1H-indol-7-yl)pyrrolo[2,1-f][1,2,4]triazin-6-yl)methyl)-6,6-dimethyl-3-azabicyclo[3.1.0]hexane-2,4-dione dihydrochloride], the inhibition at 1 µM fell in the range of 20 to 49%.

`CC1(C)NC(=O)N(Cc2cc3c(-c4cc(Cl)cc5ccn(C[C@@H]6CNCCO6)c45)ncnn3c2)C1=O` [Example 36, (S)-3-((4-(5-chloro-1-(morpholin-2-ylmethyl)-1H-indol-7-yl)pyrrolo[2,1-f][1,2,4]triazin-6-yl)methyl)-5,5-dimethylimidazolidine-2,4-dione hydrochloride] displayed an inhibition at 1 µM of 50 to 70%.

In turn, `CC1(C)C2C(=O)N(Cc3cc4c(-c5cc(Cl)ccc5N5CC[C@H](N)C5)ncnn4c3)C(=O)C21` (stereo partly drawn) [Example 86, 3-((4-(2-((S)-3-aminopyrrolidin-1-yl)-5-chlorophenyl)pyrrolo[2,1-f][1,2,4]triazin-6-yl)methyl)-6,6-dimethyl-3-azabicyclo[3.1.0]hexane-2,4-dione hydrochloride] returned an inhibition at 1 µM of 20 to 49%.

The molecule `CC1(C)C2C(=O)N(Cc3cc4c(-c5cc(Cl)ccc5N5CC6CNCC6C5)ncnn4c3)C(=O)C21` (centres unmarked) [Example 97, 3-((4-(5-chloro-2-(hexahydropyrrolo[3,4-c]pyrrol-2(1H)-yl)phenyl)pyrrolo[2,1-f][1,2,4]triazin-6-yl)methyl)-6,6-dimethyl-3-azabicyclo[3.1.0]hexane-2,4-dione hydrochloride] yielded an inhibition at 1 µM of less than 20%.

In the case of `Cc1cc(Cl)cc(-c2ncnn3cc(CN4C(=O)C5C(C4=O)C5(C)C)cc23)c1C1=CCNCC1` (centres unmarked) [Example 84, 3-((4-(5-chloro-3-methyl-2-(1,2,3,6-tetrahydropyridin-4-yl)phenyl)pyrrolo[2,1-f][1,2,4]triazin-6-yl)methyl)-6,6-dimethyl-3-azabicyclo[3.1.0]hexane-2,4-dione hydrochloride], the inhibition at 1 µM was less than 20%.

The molecule `CC1(C)C2C(=O)N(Cc3cc4c(-c5cc(C(=O)O)cc6ccn(C[C@@H]7CNCCO7)c56)ncnn4c3)C(=O)C21` (stereo partly drawn) [Example 47, 7-(6-((6,6-dimethyl-2,4-dioxo-3-azabicyclo[3.1.0]hexan-3-yl)methyl)pyrrolo[2,1-f][1,2,4]triazin-4-yl)-1-(((S)-morpholin-2-yl)methyl)-1H-indole-5-carboxylic acid hydrochloride] came in with an inhibition at 1 µM of less than 20%.

In turn, `C[C@H]1CNCC(Cc2c(F)cc(Cl)cc2-c2ncnn3cc(Cn4c(=O)ccn(C)c4=O)cc23)O1` (single isomer, unassigned) [Example 120, hydrochloride] showed an inhibition at 1 µM of more than 70%.

Molecule `Cc1cc(Cl)cc(-c2ncnn3cc(CN4C(=O)C5C(C4=O)C5(C)C)cc23)c1OCCN` (centres unmarked) [Example 9, 3-((4-(2-(2-aminoethoxy)-5-chloro-3-methylphenyl)pyrrolo[2,1-f][1,2,4]triazin-6-yl)methyl)-6,6-dimethyl-3-azabicyclo[3.1.0]hexane-2,4-dione hydrochloride] yielded an inhibition at 1 µM of 50 to 70%.

Molecule `Cc1cc(Cl)cc(-c2ncnn3cc(CN4C(=O)C5C(C4=O)C5(C)C)cc23)c1OC[C@H]1CNCCO1` (stereo partly drawn) [Example 52, 3-((4-(5-chloro-3-methyl-2-(((R)-morpholin-2-yl)methoxy)phenyl)pyrrolo[2,1-f][1,2,4]triazin-6-yl)methyl)-6,6-dimethyl-3-azabicyclo[3.1.0]hexane-2,4-dione hydrochloride] displayed an inhibition at 1 µM of 20 to 49%.

As to `Cc1cc(Cl)cc(-c2ncnn3cc(CN4C(=O)C5C(C4=O)C5(C)C)cc23)c1NCC1CCNCC1` (centres unmarked) [Example 73, 3-((4-(5-chloro-3-methyl-2-((piperidin-4-ylmethyl)amino)phenyl)pyrrolo[2,1-f][1,2,4]triazin-6-yl)methyl)-6,6-dimethyl-3-azabicyclo[3.1.0]hexane-2,4-dione dihydrochloride], the inhibition at 1 µM is more than 70%.

Regarding `Cc1cc(Cl)cc(-c2ncnn3cc(Cn4c(=O)ccn(CC(=O)O)c4=O)cc23)c1C[C@@H]1CNCCO1` (single isomer, unassigned) [Example 125, hydrochloride], the inhibition at 1 µM is 20 to 49%.

Regarding `CC1(C)C2C(=O)N(Cc3cc4c(-c5cc(F)cc6ccn(C[C@@H]7CNCCO7)c56)ncnn4c3)C(=O)C21` (stereo partly drawn) [Example 33, 3-((4-(5-fluoro-1-(((S)-morpholin-2-yl)methyl)-1H-indol-7-yl)pyrrolo[2,1-f][1,2,4]triazin-6-yl)methyl)-6,6-dimethyl-3-azabicyclo[3.1.0]hexane-2,4-dione 2,2,2-trifluoroacetate], the inhibition at 1 µM was more than 70%.

Molecule `O=C1CN2CCC[C@H]2C(=O)N1Cc1cc2c(-c3cc(Cl)cc4ccn(C[C@@H]5CNCCO5)c34)ncnn2c1` (single isomer, unassigned) [Example 31, dihydrochloride] came in with an inhibition at 1 µM of 50 to 70%.

`Cc1cc(Cl)cc(-c2ncnn3cc(CN4C(=O)C5C(C4=O)C5(C)C)cc23)c1C(=O)N1C[C@@H](N)[C@@H](C)C1` (stereo partly drawn) [Example 23, 3-((4-(2-((3S,4S)-3-amino-4-methylpyrrolidine-1-carbonyl)-5-chloro-3-methylphenyl)pyrrolo[2,1-f][1,2,4]triazin-6-yl)methyl)-6,6-dimethyl-3-azabicyclo[3.1.0]hexane-2,4-dione 2,2,2-trifluoroacetate] came in with an inhibition at 1 µM of 50 to 70%.

The molecule `Cc1c(CN2C(=O)C3C(C2=O)C3(C)C)cn2ncnc(-c3cc(Cl)cc4ccn(CC5(F)CCNCC5)c34)c12` (centres unmarked) [Example 21, 3-((4-(5-chloro-1-((4-fluoropiperidin-4-yl)methyl)-1H-indol-7-yl)-5-methylpyrrolo[2,1-f][1,2,4]triazin-6-yl)methyl)-6,6-dimethyl-3-azabicyclo[3.1.0]hexane-2,4-dione hydrochloride] showed an inhibition at 1 µM of 50 to 70%.

`CC1(C)C2C(=O)N(Cc3cc4c(-c5cc(Cl)cc6c5N(C[C@@H]5CNCCO5)CCC6)ncnn4c3)C(=O)C21` (stereo partly drawn) [Example 65, 3-((4-(6-chloro-1-(((S)-morpholin-2-yl)methyl)-1,2,3,4-tetrahydroquinolin-8-yl)pyrrolo[2,1-f][1,2,4]triazin-6-yl)methyl)-6,6-dimethyl-3-azabicyclo[3.1.0]hexane-2,4-dione hydrochloride] came in with an inhibition at 1 µM of 20 to 49%.

`Cc1cc(F)cc(-c2ncnn3cc(Cn4c(=O)ccn(C)c4=O)cc23)c1CC1CNC[C@H](C)O1` (stereo partly drawn) [Example 128, 3-((4-(5-fluoro-3-methyl-2-(((6S)-6-methylmorpholin-2-yl)methyl)phenyl)pyrrolo[2,1-f][1,2,4]triazin-6-yl)methyl)-1-methylpyrimidine-2,4(1H,3H)-dione hydrochloride] came in with an inhibition at 1 µM of 20 to 49%.

Turning to `Cc1cc(Cl)cc(-c2ncnn3cc(CN4C(=O)C5C(C4=O)C5(C)C)cc23)c1CC1CNC2(CC2)CO1` (centres unmarked) [Example 71, 3-((4-(2-((7-oxa-4-azaspiro[2.5]octan-6-yl)methyl)-5-chloro-3-methylphenyl)pyrrolo[2,1-f][1,2,4]triazin-6-yl)methyl)-6,6-dimethyl-3-azabicyclo[3.1.0]hexane-2,4-dione 2,2,2-trifluoroacetate], the inhibition at 1 µM fell in the range of 20 to 49%.

Staying with this experiment, now noted: 1 μM of the test compound; given where IC50 has not been determined yet; mean of two repetitions; hydrochloride, 1 µM.
Consider `Cc1cc(Cl)cc(-c2ncnn3cc(CN4C(=O)C5C(C4=O)C5(C)C)cc23)c1OC(C)[C@@H]1CNCCO1.Cl` (single isomer, unassigned) [Example 77], for which the USP7 % inhibition result was “D* (D*: <20% inhibition)”.

As to `Cc1cc(Cl)cc(-c2ncnn3cc(CN4C(=O)C5C(C4=O)C5(C)C)cc23)c1OC(C)C1CCNCC1.Cl` (single isomer, unassigned) [Example 56, 3-((4-(5-chloro-3-methyl-2-(1-(piperidin-4-yl)ethoxy)phenyl)pyrrolo[2,1-f][1,2,4]triazin-6-yl)methyl)-6,6-dimethyl-3-azabicyclo[3.1.0]hexane-2,4-dione hydrochloride], the USP7 % inhibition entry is listed as “B* (B*: 50-70% inhibition)”.
